Data: article PMC6934184, “Selective DNA-PKcs inhibition extends the therapeutic index of localized radiotherapy and chemotherapy” (The Journal of Clinical Investigation, 2019)

Molecular target: T1, EPHB1 (Homo sapiens, UniProt P54762)
T1 construct: purchased Thermo Fisher Scientific (Life Technologies) SelectScreen
Assay: SelectScreen Z'LYTE
Type: biochemical
Summary of the method: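 SelectScreen broad panel; activity (Z'LYTE, Adapta) plus binding formats. ATP: Km app for CSF1R Z'LYTE; 10 for CAMK1 Adapta. Readout = % per kinase.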

T1 sequence (P54762 18-984): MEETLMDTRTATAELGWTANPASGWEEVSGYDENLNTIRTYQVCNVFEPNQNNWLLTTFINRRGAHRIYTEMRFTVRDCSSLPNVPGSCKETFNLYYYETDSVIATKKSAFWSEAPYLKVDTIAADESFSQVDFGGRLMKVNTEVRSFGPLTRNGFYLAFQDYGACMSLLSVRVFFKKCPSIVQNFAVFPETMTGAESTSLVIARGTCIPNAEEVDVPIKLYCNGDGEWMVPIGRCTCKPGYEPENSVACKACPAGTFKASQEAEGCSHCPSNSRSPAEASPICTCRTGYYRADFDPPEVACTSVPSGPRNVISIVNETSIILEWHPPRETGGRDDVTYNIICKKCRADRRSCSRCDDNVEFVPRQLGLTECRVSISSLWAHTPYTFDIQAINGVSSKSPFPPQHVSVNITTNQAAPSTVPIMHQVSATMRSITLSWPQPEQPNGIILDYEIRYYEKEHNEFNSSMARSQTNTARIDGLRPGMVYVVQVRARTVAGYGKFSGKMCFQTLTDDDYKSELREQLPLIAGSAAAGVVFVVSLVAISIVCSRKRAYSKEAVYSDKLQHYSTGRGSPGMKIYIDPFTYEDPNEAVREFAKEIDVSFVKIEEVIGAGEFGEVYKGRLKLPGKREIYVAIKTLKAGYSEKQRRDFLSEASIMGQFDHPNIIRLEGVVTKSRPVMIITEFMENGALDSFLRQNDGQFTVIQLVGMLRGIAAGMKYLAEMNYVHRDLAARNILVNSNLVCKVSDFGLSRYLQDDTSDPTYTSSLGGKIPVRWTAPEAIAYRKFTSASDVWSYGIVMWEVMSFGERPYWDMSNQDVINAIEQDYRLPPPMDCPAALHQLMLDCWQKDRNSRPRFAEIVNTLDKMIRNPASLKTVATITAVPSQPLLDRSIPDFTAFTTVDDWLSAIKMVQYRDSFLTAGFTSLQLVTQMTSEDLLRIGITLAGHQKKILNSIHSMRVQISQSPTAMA

## CN(C(=O)CN1CCOCC1)c1ccc2sc3c(-c4cccc5c(=O)cc(N6CC7CCC(C6)O7)oc45)cccc3c2c1 [NU5455]
  inhibition at 1 µM: 5.1%
